Patent US20050059658A1, “Pyridazinone” (priority 2001, published 2005)

Columns and labels:
[1] = Cytotoxicity on NHDF cells in the anti-HCMV cytopathogenicity test; assay type: cell-based; settings: human, NHDF cells (normal human dermal fibroblasts), 6 days incubation, visual evaluation
Method: (§1) The test compounds are used as 50 millimolar (mM) solutions in dimethyl sulfoxide (DMSO). The reference compounds used are ganciclovir, foscarnet and cidofovir. In each case 2 μl of the 50, 5, 0.5 and 0.05 mM DMSO stock solutions are added to in each case 98 μl of cell culture medium in row […] in duplicate, and 1:2 dilutions with in each case 50 μl of medium are then made up to row 11 of the 96-well plate. The wells in rows 1 and 12 each contain 50 μl of medium. In each case 150 μl of a suspension of 1×10^4 cells (NHDF=normal human dermal fibroblasts) (row 1 =cell control) and, for rows 2-12, a mixture of HCMV-infected and non-infected NHDF cells (M.O.I.=0.001-0.002), i.e. 1-2 infected cells per 1000 non-infected cells, are then pipetted into the wells. Row 12 (without substance) serves as virus control. The final test concentrations are 250-0.0005 μM. The plates are incubated at 37° C./5% CO2 for 6 days, i.e. until all cells in the virus controls are infected (100% cytopathogenic effect [CPE]). The wells are then fixed by adding a mixture of formalin and Giemsa's dye and stained (30 minutes), washed with doubly distilled water and dried in a drying cabinet at 50° C. The plates are then examined visually using an overhead microscope (Plaque multiplier from Technomara). Using the test plates, the following data can be determined: • CC50 (NHDF)=substance concentration in μM where, compared to the untreated cell control, no cytostatic effects on the cells are evident; • EC50 (HCMV)=substance concentration in μM where the CPE (cytopathic effect) is inhibited by 50% compared to the untreated virus control; • SI (selectivity index)=CC50 (NHDF)/EC50 (HCMV). In vivo Action: HCMV Xenograft Gelfoam® Model: Animals: […]

[2] = system: human cytomegalovirus (HCMV); assay: Anti-HCMV (anti-human cytomegalovirus) cytopathogenicity test; assay type: cell-based; settings: for EC50: Human betaherpesvirus 5, 144 h, HCMV-infected NHDF cells, M.O.I. 0.001-0.002, 6 days, 50% inhibition of CPE; for SI HCMV: selectivity index = CC50 (NHDF)/EC50 (HCMV)
Method: as §1

[3] = system: Human cytomegalovirus (HCMV), DavisSmith strain; assay: HCMV xenograft Gelfoam model; assay type: in vivo, immunodeficient mice; settings: perorally three times a day for 8 days, SCID mice, HCMV-infected NHDF cells in Gelfoam sponge
Text: Female immunodeficient mice (16-18 g), Fox Chase SCID or Fox Chase SCID-NOD or SCID-beige, 3-4 weeks old, are obtained from commercial breeders (Bomholtgaard, Jackson). The animals are kept under sterile conditions (including litter and feed) in isolation units.
Human cytomegalovirus (HCMV), DavisSmith strain, is cultivated in vitro on embryonal human dermal fibroblasts (NHDF cells). Following infection of the NHDF cells with a multiplicity of infection (M.O.I.) of 0.01, the virus-infected cells are harvested after 5-7 days and, in the presence of minimal essential medium (MEM), 10% fetal calf serum (FCS) with 10% DMSO, stored at −40° C. Following serial dilution of the virus-infected cells in steps of ten, the titer is determined on 24-well plates of confluent NHDF cells after vital stain with Neutral Red.
Collagen sponges (Gelfoam®; from Peasel & Lorey, order No. 40734; K. T. Chong et al., Abstracts of 39th Interscience Conference on Antimicrobial Agents and Chemotherapy, 1999, p. 439) of a size of 1×1×1 cm are initially wetted with phosphate-buffered saline (PBS), the enclosed air bubbles are removed by degassing and the sponges are then stored in MEM+10% FCS. […] What is determined is the number of infectious virus particles after substance treatment compared to the placebo-treated control group.

Row | Structure (SMILES) | EC50 [2] [µM] | melting point [°C] | CC50 at 6 days [1] [µM] | SI HCMV [2] | Murine xenograft model ED50 t.i.d. [3] [mg]kg]
1 | CC1(C)CC(c2ccccc2NC(=O)Nc2ccc(F)cc2F)=NNC1=O [Example 5, N-(2,4-Difluorophenyl)-N′-[2-(5,5-dimethyl-6-oxo-1,4,5,6-tetrahydro-3-pyridazinyl)-phenyl]urea] | 6.1 |  | 125 | 21 | 
2 | CC1(C)CC(c2cccc(NC(=O)Nc3ccc(F)c(F)c3)c2)=NNC1=O [Example 6, N-(3,4-Difluorophenyl)-N′-[3-(5,5-dimethyl-6-oxo-1,4,5,6-tetrahydro-3-pyridazinyl)-phenyl]urea] |  | 200 |  |  | 
3 | CC1(C)CC(=O)NN=C1c1cccc(NC(=O)Nc2ccc(F)cc2F)c1 [Example 1, N-(2,4-Difluorophenyl)-N′-[3-(4,4-dimethyl-6-oxo-1,4,5,6-tetrahydro-3-pyridazinyl)-phenyl]urea] | 0.96 | 213 | 125 | 130 | 18

Second part, led by results:

Row | EC50 [2] [µM] | melting point [°C] | Structure (SMILES) | CC50 at 6 days [1] [µM] | SI HCMV [2] | Murine xenograft model ED50 t.i.d. [3] [mg]kg]
4 | 0.07 |  | CC1(C)CC(=O)NN=C1c1cccc(NC(=O)Nc2ccc(F)c(Cl)c2)c1 [Example 2, N-(3-Chloro-4-fluorophenyl)-N′-[3-(4,4-dimethyl-6-oxo-1,4,5,6-tetrahydro-3-pyridazinyl)phenyl]urea] | 23 | 329 | 
5 | 0.15 | 232 | Cc1cc(Cl)ccc1NC(=O)Nc1cccc(C2=NNC(=O)CC2(C)C)c1 [Example 4, N-(4-Chloro-2-methylphenyl)-N′-[3-(4,4-dimethyl-6-oxo-1,4,5,6-tetrahydro-3-pyridazinyl)phenyl]urea] | > 23 | >153 | 8
6 | 0.13 | 207 | CC1(C)CC(=O)NN=C1c1cccc(NC(=O)Nc2cccc(Br)c2)c1 [Example 3, N-(3-Bromophenyl)-N′-[3-(4,4-dimethyl-6-oxo-1,4,5,6-tetrahydro-3-pyridazinyl)-phenyl]urea] | 24 | 185 | 
